Measurements taken from ChEMBL document CHEMBL1201862, “PubChem BioAssay data set” (2004).
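Each compound was tested at five concentrations against cells in 96-well plates for 48 hours. Abbreviation: GI50, concentration required for 50% inhibition of growth.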 Calls of active or inactive are those of the source. Rule as the data show it: active = GI50 up to about 1.1 µM and inactive = higher.

What was measured:
Test in all cases: growth of human tumour cells (NCI), 48 h
NCI-H522 = system: NCI-H522
OVCAR-3 = system: OVCAR-3
SR = system: SR
RXF 393 = system: RXF 393
SF-539 = system: SF-539
Malme-3M = system: Malme-3M
SF-295 = system: SF-295
HOP-92 = system: HOP-92
UACC-257 = system: UACC-257
LOX IMVI = system: LOX IMVI
786-0 = system: 786-0
SNB-19 = system: SNB-19
SNB-75 = system: SNB-75
DMS-273 = system: DMS-273
M14 = system: M14
HL-60 = system: HL-60
OVCAR-4 = system: OVCAR-4
KM12 = system: KM12
A549 = system: A549
NCI/ADR-RES = system: NCI/ADR-RES

Measured: GI50

CCOc1ccc(OP2(=O)NC(=O)C=C(C)N2)cc1 (configuration not stated)
inactive: NCI-H522 > 100 µM | OVCAR-3 > 100 µM | SR 48.4 µM | RXF 393 > 100 µM | SF-539 > 100 µM | Malme-3M > 100 µM | SF-295 > 100 µM | HOP-92 > 100 µM | UACC-257 > 100 µM | LOX IMVI > 100 µM | 786-0 92.9 µM | SNB-19 > 100 µM | SNB-75 > 100 µM | DMS-273 > 100 µM | M14 > 100 µM | HL-60 37.8 µM | OVCAR-4 > 100 µM | KM12 > 100 µM | A549 > 100 µM

O=C(c1ccncc1)n1nc(-c2ccccc2)c(/N=N/c2ccc([N+](=O)[O-])cc2)c1-c1ccccc1
inactive: NCI-H522 66.7 µM | OVCAR-3 50.9 µM | SR 45.3 µM | SF-539 89.5 µM | Malme-3M 90.6 µM | SF-295 44.7 µM | HOP-92 27.5 µM | UACC-257 92.3 µM | 786-0 > 100 µM | SNB-19 31.6 µM | SNB-75 12.6 µM | DMS-273 > 100 µM | M14 92 µM | HL-60 89.3 µM | OVCAR-4 15 µM | KM12 34.8 µM | A549 55.7 µM

COc1ccc(-c2c(C3=NCCCN3)nnn2-c2ccccc2)cc1
inactive: NCI-H522 > 100 µM | OVCAR-3 > 100 µM | SR > 100 µM | RXF 393 > 100 µM | SF-539 > 100 µM | Malme-3M > 100 µM | SF-295 > 100 µM | HOP-92 86.5 µM | UACC-257 > 100 µM | LOX IMVI > 100 µM | 786-0 > 100 µM | SNB-19 > 100 µM | SNB-75 47.4 µM | DMS-273 > 100 µM | M14 > 100 µM | HL-60 > 100 µM | OVCAR-4 > 100 µM | KM12 > 100 µM | A549 > 100 µM

COc1ccc2c([nH]c3cc(O)c(C)cc32)c1C=O
inactive: NCI-H522 20 µM | OVCAR-3 > 25 µM | SR 18.9 µM | RXF 393 > 25 µM | SF-539 > 25 µM | Malme-3M > 25 µM | HOP-92 > 25 µM | LOX IMVI > 25 µM | 786-0 > 25 µM | SNB-19 > 25 µM | DMS-273 > 25 µM | M14 > 25 µM | HL-60 15.9 µM | OVCAR-4 > 25 µM | KM12 > 25 µM | A549 18.5 µM

CC1C=CC(C(N)C(=O)O)O1 (configuration not stated)
inactive: NCI-H522 > 100 µM | OVCAR-3 > 100 µM | SR > 100 µM | RXF 393 > 100 µM | SF-539 > 100 µM | Malme-3M > 100 µM | SF-295 > 100 µM | HOP-92 > 100 µM | LOX IMVI > 100 µM | 786-0 > 100 µM | SNB-19 > 100 µM | SNB-75 > 100 µM | DMS-273 > 100 µM | M14 > 100 µM | HL-60 > 100 µM | OVCAR-4 > 100 µM | KM12 > 100 µM | A549 > 100 µM

C[Si](C)(C)/C=C/CN1C(=O)CCC1O (configuration not stated)
inactive: NCI-H522 > 100 µM | OVCAR-3 > 100 µM | SR > 100 µM | RXF 393 > 100 µM | SF-539 > 100 µM | Malme-3M > 100 µM | SF-295 > 100 µM | HOP-92 > 100 µM | UACC-257 > 100 µM | LOX IMVI > 100 µM | 786-0 > 100 µM | SNB-19 > 100 µM | SNB-75 > 100 µM | DMS-273 > 100 µM | M14 > 100 µM | HL-60 > 100 µM | OVCAR-4 > 100 µM | KM12 > 100 µM | A549 > 100 µM

Nc1ccc2nc(Nc3ccc(Cl)c(Cl)c3)cnc2c1
inactive: NCI-H522 6.37 µM | OVCAR-3 16.9 µM | SR 2.44 µM | SF-539 29.5 µM | Malme-3M 18.5 µM | SF-295 > 10 µM | UACC-257 25.8 µM | LOX IMVI 14.7 µM | 786-0 15.5 µM | SNB-19 17.3 µM | SNB-75 82.6 µM | DMS-273 18.2 µM | M14 14.3 µM | HL-60 8.47 µM | OVCAR-4 17 µM | KM12 15.6 µM | A549 15.7 µM

CCSc1nc(COC(=O)NC)c(COC(=O)NC)n1C
inactive: NCI-H522 40.6 µM | OVCAR-3 > 100 µM | SR 51.3 µM | RXF 393 42.8 µM | SF-539 98.9 µM | Malme-3M > 100 µM | SF-295 > 100 µM | HOP-92 > 80.5 µM | UACC-257 > 100 µM | LOX IMVI > 97.1 µM | 786-0 99.5 µM | SNB-19 > 100 µM | SNB-75 > 100 µM | DMS-273 > 94.4 µM | M14 > 64.1 µM | HL-60 82.6 µM | OVCAR-4 > 75.7 µM | KM12 > 100 µM | NCI/ADR-RES > 100 µM | A549 > 97.5 µM

CCCCCCCCCCCCCCCCCCCCCCC(=O)N[C@H]1CCc2cc(OC)c(OC)c(OC)c2-c2ccc(SC)c(=O)cc21
inactive: NCI-H522 13.4 µM | OVCAR-3 24.2 µM | SR 23.5 µM | SF-539 17.6 µM | Malme-3M 51.5 µM | SF-295 34.6 µM | HOP-92 34.4 µM | UACC-257 39.2 µM | 786-0 40.2 µM | SNB-19 39.1 µM | SNB-75 20.2 µM | DMS-273 27.9 µM | M14 27.5 µM | HL-60 17.1 µM | OVCAR-4 > 100 µM | KM12 35.2 µM | A549 26.4 µM
